Test results from publication PMC6058520 (Drug Delivery, 2018).
“And” between values parts separate entries of the source, which are not always exact repeats. Identical values can stand only once. Square brackets hold non-standard residues; d marks the D form. Peptide text beside a SMILES is read from it.

Assays:
[1] = Pharmacokinetics of insulin/TCTP-PTD analog mixtures in normal rats (plasma insulin, ELISA); assay type: in vivo, rat; settings: for BA (relative bioavailability compared to s.c.) / AUC / Cmax / Tmax: mean ± SEM (n = 5–7); for Cmax / Tmax: ELISA
Experimental: Rats were fasted for 16 h with access to water, anesthetized by intraperitoneal injection of sodium pentobarbital (60 mg/kg), and placed in the supine position. […] Blood samples (100 µL) were collected from the rat tail 5, 10, 20, 30, 60, 90, 120 and 180 min after dosing and centrifuged at 5000 × g for 25 min to obtain plasma. […] Relative BA was calculated using the following formula: BA(%)=(AUCnasal×Doses.c.)/(AUCs.c×Dosenasal)×100%

[2] = ref Bae & Lee, 2013; cited from earlier work
Source text: We previously reported that the human translationally controlled tumor protein (TCTP) contains a PTD at its N-terminus (TCTP-PTD) with the amino acid sequence […] al., [2011a]). To improve the penetration of peptides through the cell membrane, we designed variant peptides modified from TCTP-PTD. […] Therefore, the D-TCTP-PTD analogs could negatively affect insulin delivery through the nasal mucosa.

[3] = system: BEAS-2B human bronchial epithelial cells; experiment: Cellular uptake of FITC-labeled peptides, flow cytometry; assay type: cell-based; settings: FITC-labeled peptides 5 µM in BEGM, BEAS-2B cells, 30 min, 37 °C, p < .05
Experimental: Cellular uptake assays were carried out to assess the membrane permeability of the new peptides, as previously described (Bae et al., [2016]). Briefly, BEAS-2B human bronchial epithelial cells (American Type Culture Collection [ATCC], Manassas, VA) were maintained in bronchial epithelial growth medium (BEGM; Lonza, Walkersville, MD) and 2 × 10^5 cells/well were seeded in 12-well plates. After 24 h, the cells were washed twice with 1 mL phosphate-buffered saline (PBS) and incubated with FITC-labeled peptides (5 µM) in BEGM for 30 min at 37 °C. The cells were then washed three times with ice-cold PBS to remove cell surface-bound peptides. After trypsinization, the cells were collected by centrifugation (1000 × g for 5 min), washed and finally resuspended in 1 mL ice-cold PBS. The internalized FITC was measured using fluorescence-activated cell sorting on a FACSCalibur flow cytometer (Becton Dickinson, San Jose, CA, USA) at emission and excitation wavelengths of 510 and 530 nm, respectively. Assays were performed in triplicate and repeated at least three times. Flow cytometric analyses were accomplished using WinMDI v.2.8 software.

[4] = system: rats with alloxan-induced diabetes; experiment: Pharmacodynamics (blood glucose) of insulin/TCTP-PTD analog mixtures in diabetic rats; assay type: in vivo, rat; settings: area above blood glucose curve, mean ± SEM (n = 6–8)
Experimental: After 5 days, rats with fasting blood glucose levels in the range of 230-300 mg/dL were selected for the pharmacodynamic studies. […] Then, they were anesthetized by intraperitoneal injections of sodium pentobarbital (60 mg/kg). […] Blood samples were collected from the tip of the rat tail, and blood glucose levels were directly measured using an Accu-Chek glucose meter (Roche Diagnostics, Seoul, Korea). […] The area above the blood glucose curve (AAC) was calculated according to the trapezoid rule. The F% was calculated using the following equation: F%=([…])×100%

[5] = D-form compared with L-TCTP-PTD 13; ref Bae et al., 2016; cited from earlier work
Source text: Therefore, the D-TCTP-PTD analogs could negatively affect insulin delivery through the nasal mucosa.

[6] = insulin 1 IU/kg intranasal plus 0.1 mM PTD
[7] = insulin 1 IU/kg intranasal plus 0.25 mM PTD
[8] = plasma insulin AUC0-180 min, insulin 1 IU/kg intranasal plus 0.1 mM PTD
[9] = plasma insulin AUC0-180 min, insulin 1 IU/kg intranasal plus 0.25 mM PTD
[10] = plasma insulin, insulin 1 IU/kg intranasal plus 0.1 mM PTD
[11] = plasma insulin, insulin 1 IU/kg intranasal plus 0.25 mM PTD

Row | Compound | BA (relative bioavailability compared to s.c.) [1, 6] [%] | BA (relative bioavailability compared to s.c.) [1, 7] | AUC [1, 8] [μU/mL·min] | AUC [1, 9] [μU/mL·min] | Cmax [1, 10] [μU/mL] | Tmax [1, 10] [min] | Cmax [1, 11] [μU/mL] | Tmax [1, 11] [min] | nasal absorption of insulin compared to insulin alone (in words) [2] | cellular uptake capacity compared with L-TCTP-PTD 13 (in words) [3] | AUC ([1]; AUC0-180 min, insulin s.c., 0.25 IU/kg) [μU/mL·min] | AUC ([1]; AUC0-180 min, trapezoid rule, insulin alone, intranasal, 5 IU/kg) [μU/mL·min] | plasma insulin after intranasal insulin alone (in words) ([1]; insulin 1 IU/kg intranasal, alone) | Cmax ([1]; insulin s.c., 0.25 IU/kg) [μU/mL] | AAC0–240 min ([4]; insulin alone, intranasal, 2 IU/kg) [% glucose/min] | AAC0–240 min ([4]; insulin s.c., 1 IU/kg) [% glucose/min] | antigen (ovalbumin) carrier potency through nasal mucosa (in words) [5]
1 | CC[C@H](C)[C@H](NC(=O)[C@H](CC(C)C)NC(=O)[C@H](C)NC(=O)[C@H](CCCNC(=N)N)NC(=O)[C@H](Cc1ccccc1)NC(=O)[C@@H](NC(=O)[C@@H](NC(=O)[C@H](CCSC)NC(C)=O)[C@@H](C)CC)[C@@H](C)CC)C(=O)N[C@@H](CO)C(=O)N[C@@H](Cc1c[nH]cn1)C(=O)N[C@@H](CCCCN)C(=O)N[C@@H](CCCCN)C(N)=O [L-TCTP-PTD 13] (Ac-MIIFRALISHKK-NH2) | 9.0 ± 1.4 | 22.1% and 22.1 ± 2.5% | 847.1 ± 132.9 | 2081.7 ± 238.6 | 26.4 ± 7.8 | 12.0 ± 2.0 | 53.4 ± 6.7 | 10.0 ± 0.0 | enhanced nasal absorption |  |  |  |  |  |  |  | 
2 | CC[C@H](C)[C@H](NC(=O)[C@H](CC(C)C)NC(=O)[C@H](CC(C)C)NC(=O)[C@H](CCCNC(=N)N)NC(=O)[C@H](Cc1ccccc1)NC(=O)[C@@H](NC(=O)[C@@H](NC(=O)[C@H](CCSC)NC(C)=O)[C@@H](C)CC)[C@@H](C)CC)C(=O)N[C@@H](CO)C(=O)N[C@@H](Cc1c[nH]cn1)C(=O)N[C@@H](CCCCN)C(=O)N[C@@H](CCCCN)C(N)=O [L-TCTP-PTD 13M1] (Ac-MIIFRLLISHKK-NH2) | 20.9 ± 1.4 | 10.1 ± 2.4% | 1966.3 ± 130.5 | 951.7 ± 225.9 | 47.1 ± 3.1 | 10.0 ± 0.0 | 15.0 ± 3.3 | 13.3 ± 2.1 |  | lower |  |  |  |  |  |  | 
3 | Insulin: Human recombinant insulin (27.5 IU/mg), Sigma-Aldrich |  |  |  |  |  |  |  |  |  |  | 2356.4 ± 106.2 | 180.5 ± 37.6 | scarcely detectable | 40.9 ± 0.9 | 721.0 ± 478.2 | 11354.3 ± 507.8 | 
4 | CC[C@@H](C)[C@@H](NC(=O)[C@@H](CC(C)C)NC(=O)[C@@H](C)NC(=O)[C@@H](CCCNC(=N)N)NC(=O)[C@@H](Cc1ccccc1)NC(=O)[C@H](NC(=O)[C@H](NC(=O)[C@@H](CCSC)NC(C)=O)[C@H](C)CC)[C@H](C)CC)C(=O)N[C@H](CO)C(=O)N[C@H](Cc1c[nH]cn1)C(=O)N[C@H](CCCCN)C(=O)N[C@H](CCCCN)C(N)=O [D-TCTP-PTD 13] (Ac-[dM][dI][dI][dF][dR][dA][dL][dI][dS][dH][dK][dK]-NH2) |  | 6.8% and 6.8 ± 2.0% |  | 645.5 ± 191.2 |  |  | 13.8 ± 4.2 | 14.0 ± 2.4 |  |  |  |  |  |  |  |  | more potent antigen carrier
